Measurements taken from patent US20250313546A1, “NUCLEIC ACID BINDERS” (UNIVERSITY OF STRATHCLYDE, priority 2022, published 2025).
Values after ≈ are worked out from the molar mass of the structure shown.

Legend:
[1] = system: Staphylococcus aureus (ATCC 43300); experiment: Antibacterial MIC, broth microdilution (CLSI); format: cell-based; settings: for MIC80: Staphylococcus aureus, ATCC43300, read-out: MIC80 S. aureus; for S. aureus Selectivity Indices, Group / S. aureus Selectivity Index (SI): SI, IC50 (μM)/MIC80 (μM), HEK293 cytotoxicity; for S. aureus Selectivity Indices, Group: Quaternary ammoniums; for S. aureus Selectivity Index (SI): numeric value
[2] = system: Enterococcus faecalis (ATCC 51299); experiment: Antibacterial MIC, broth microdilution (CLSI); format: cell-based; settings: for MIC80: Enterococcus faecalis, ATCC51299, read-out: MIC80 E. faecalis
[3] = system: Escherichia coli (ATCC 25922); experiment: Antibacterial MIC, broth microdilution (CLSI); format: cell-based; settings: Escherichia coli, ATCC25922; read-out: MIC80 E. coli
[4] = system: Genomic double stranded DNA (salmon); experiment: Fluorescence intercalator displacement (FID) assay, SYBR-safe probe; settings: 20 μM compound, 30° C., lower % = stronger binding
Summary of the method: (§1)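 Compound at 20 μM mixed with 3.76 ng/mL polyAU dsRNA or salmon genomic dsDNA and 12500-fold diluted SybrSafe in 1 mM phosphate buffer pH 7.4, then heated to 30 °C and fluorescence read. Reduction is expressed as normalised %, with nucleic acid plus probe as maximum and probe alone as minimum.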

[5] = system: PolyAU double stranded RNA; experiment: as above; settings: 20 μM compound, 30° C., lower % = stronger binding
Summary of the method: as §1

C. neoformans (F10025) = settings: Cryptococcus neoformans, read-out: MIC99 C. neoformans
[6] = system: A. fumigatus A1160 (MFIG001); settings: Aspergillus fumigatus, read-out: MIC99 A. fumigatus A1160
[7] = system: Candida glabrata (ACPF3309); settings: Nakaseomyces glabratus, read-out: MIC99 Candida glabrata
T. vaginalis = experiment: Trichomonas resorufin assay; format: cell-based; settings: for IC50: Trichomonas vaginalis, read-out: IC50 T. vaginalis; for T. vaginalis Selectivity Indices, Group / T. vaginalis Selectivity Index (SI): SI, IC50 (μM)/IC50 (μM), HEK293 cytotoxicity; for T. vaginalis Selectivity Indices, Group: Quaternary ammoniums; for T. vaginalis Selectivity Index (SI): numeric value
[8] = SI, IC50 (μM)/MIC80 (μM), HEK293 cytotoxicity, Quaternary ammoniums

SMILES: CN(C)CCCN(CCCN(C)C)C(=O)c1cc(NC(=O)c2cc(NC(=O)c3ccc(/C=C/c4cnc5ccccc5c4)cc3)cn2C)cn1C [IVa9, (E)-N,N-bis(3-(dimethylamino)propyl)-1-methyl-4-(1-methyl-4-(4-(2-(quinolin-3-yl)vinyl)benzamido)-1H-pyrrole-2-carboxamido)-1H-pyrrole-2-carboxamide]
- MIC80 [1]: 25 to 100 µM (≈ 17.2 to 68.9 µg/mL)
- MIC80 [2]: > 100 µM
- MIC80 [3]: > 100 µM
- % Normalised Fluorescence with gDNA [4]: 3%
- % Normalised Fluorescence with polyAU RNA [5]: 4%
- MIC99 (C. neoformans (F10025)): 25 to 50 µg/mL (≈ 36.3 to 72.6 µM)
- MIC99 [6]: > 50 µg/mL
- MIC99 [7]: 25 to 50 µg/mL (≈ 36.3 to 72.6 µM)

SMILES: CCNC(=N)CCNC(=O)c1cc(NC(=O)c2cc(NC(=O)c3ccc(/C=C/c4cccc(OC)c4)cc3)cn2C)cn1C [Ia22, (E)-N-(3-(ethylamino)-3-iminopropyl)-4-(4-(4-(3-methoxystyryl)benzamido)-1-methyl-1H-pyrrole-2-carboxamido)-1-methyl-1H-pyrrole-2-carboxamide]
- MIC80 [1]: 5 to 25 µM (≈ 2.98 to 14.9 µg/mL)
- MIC80 [2]: < 5 µM
- E. faecalis Selectivity Indices, Group ([2]; SI, IC50 (μM)/MIC80 (μM), HEK293 cytotoxicity, Alkyl Amidines and NH Pyrroles): C (Group C: 5 < SI <= 10)
- MIC80 [3]: > 100 µM
- IC50 (T. vaginalis): 1 to 5 µM
- % Normalised Fluorescence with gDNA [4]: 3%
- % Normalised Fluorescence with polyAU RNA [5]: 5%
- MIC99 (C. neoformans (F10025)): 25 to 50 µg/mL (≈ 42 to 83.9 µM)
- MIC99 [6]: > 50 µg/mL
- MIC99 [7]: 5 to 25 µg/mL (≈ 8.39 to 42 µM)

SMILES: CCCCCCC/N=C(\CCNC(=O)c1cc(NC(=O)c2cc(NC(=O)c3ccc(/C=C/c4ccc(N(C)C)cc4)nc3)cn2C)cn1C)NCCCCCCC [Ia33, 6-((E)-4-(dimethylamino)styryl)-N-(5-((5-(((E)-3-(heptylamino)-3-(heptylimino)propyl)carbamoyl)-1-methyl-1H-pyrrol-3-yl)carbamoyl)-1-methyl-1H-pyrrol-3-yl)nicotinamide]
- MIC80 [1]: 5 to 25 µM (≈ 3.89 to 19.5 µg/mL)
- MIC80 [2]: 25 to 100 µM (≈ 19.5 to 77.8 µg/mL)
- MIC80 [3]: > 100 µM
- IC50 (T. vaginalis): 5 to 50 µM
- % Normalised Fluorescence with gDNA [4]: 49%
- % Normalised Fluorescence with polyAU RNA [5]: 24%
- MIC99 (C. neoformans (F10025)): 25 to 50 µg/mL (≈ 32.1 to 64.3 µM)
- MIC99 [6]: > 50 µg/mL
- MIC99 [7]: > 50 µg/mL

SMILES: CCCCCCCCCNC(=N)CCNC(=O)c1cc(NC(=O)c2cc(NC(=O)c3ccc(/C=C/c4cnc5ccccc5c4)cc3)cn2C)cn1C [Ia36, (E)-N-(3-imino-3-(nonylamino)propyl)-1-methyl-4-(1-methyl-4-(4-(2-(quinolin-3-yl)vinyl)benzamido)-1H-pyrrole-2-carboxamido)-1H-pyrrole-2-carboxamide]
- MIC80 [1]: 5 to 25 µM (≈ 3.57 to 17.9 µg/mL)
- MIC80 [2]: 25 to 100 µM (≈ 17.9 to 71.5 µg/mL)
- MIC80 [3]: > 100 µM
- IC50 (T. vaginalis): 5 to 50 µM
- % Normalised Fluorescence with gDNA [4]: 11%
- % Normalised Fluorescence with polyAU RNA [5]: 4%
- MIC99 (C. neoformans (F10025)): > 50 µg/mL
- MIC99 [6]: > 50 µg/mL
- MIC99 [7]: 25 to 50 µg/mL (≈ 35 to 69.9 µM)

SMILES: CCCCCCC/N=C(/CCNC(=O)c1cc(NC(=O)c2cc(NC(=O)c3ccc(/C=C/c4cnc5ccccc5c4)cc3)cn2C)cn1C)NCCCCCCC [Ia37, N—((Z)-3-(heptylamino)-3-(heptylimino)propyl)-1-methyl-4-(1-methyl-4-(4-((E)-2-(quinolin-3-yl)vinyl)benzamido)-1H-pyrrole-2-carboxamido)-1H-pyrrole-2-carboxamide]
- MIC80 [1]: 5 to 25 µM (≈ 3.93 to 19.6 µg/mL)
- MIC80 [2]: 25 to 100 µM (≈ 19.6 to 78.5 µg/mL)
- MIC80 [3]: > 100 µM
- IC50 (T. vaginalis): 5 to 50 µM
- % Normalised Fluorescence with gDNA [4]: 16%
- % Normalised Fluorescence with polyAU RNA [5]: 68%
- MIC99 (C. neoformans (F10025)): 25 to 50 µg/mL (≈ 31.8 to 63.7 µM)
- MIC99 [6]: > 50 µg/mL
- MIC99 [7]: > 50 µg/mL

SMILES: CCCC/N=C(\CCNC(=O)c1cc(NC(=O)c2cc(NC(=O)c3ccc(/C=C/c4cnc5ccccc5c4)cc3)cn2C)cn1C)NCCCC [Ia38, N—((E)-3-(butylamino)-3-(butylimino)propyl)-1-methyl-4-(1-methyl-4-(4-((E)-2-(quinolin-3-yl)vinyl)benzamido)-1H-pyrrole-2-carboxamido)-1H-pyrrole-2-carboxamide]
- MIC80 [1]: < 5 µM
- MIC80 [2]: 25 to 100 µM (≈ 17.5 to 70.1 µg/mL)
- MIC80 [3]: > 100 µM
- IC50 (T. vaginalis): 5 to 50 µM
- % Normalised Fluorescence with gDNA [4]: 10%
- % Normalised Fluorescence with polyAU RNA [5]: 4%
- MIC99 (C. neoformans (F10025)): 25 to 50 µg/mL (≈ 35.7 to 71.3 µM)
- MIC99 [6]: > 50 µg/mL
- MIC99 [7]: 5 to 25 µg/mL (≈ 7.13 to 35.7 µM)

SMILES: CCCC/N=C(\CCNC(=O)c1cc(NC(=O)c2cc(NC(=O)c3ccc(/C=C/c4ccc(N(C)C)cc4)nc3)cn2C)cn1C)NCCCC [Ia39, N-(5-((5-(((E)-3-(butylamino)-3-(butylimino)propyl)carbamoyl)-1-methyl-1H-pyrrol-3-yl)carbamoyl)-1-methyl-1H-pyrrol-3-yl)-6-((E)-4-(dimethylamino)styryl)nicotinamide]
- MIC80 [1]: < 5 µM
- MIC80 [2]: 25 to 100 µM (≈ 17.3 to 69.4 µg/mL)
- MIC80 [3]: > 100 µM
- IC50 (T. vaginalis): 5 to 50 µM
- % Normalised Fluorescence with gDNA [4]: 50%
- % Normalised Fluorescence with polyAU RNA [5]: 43%
- MIC99 (C. neoformans (F10025)): 25 to 50 µg/mL (≈ 36 to 72.1 µM)
- MIC99 [6]: > 50 µg/mL
- MIC99 [7]: 25 to 50 µg/mL (≈ 36 to 72.1 µM)

SMILES: CCCC[N+](C)(C)CCNC(=O)c1cc(NC(=O)c2cc(NC(=O)c3ccc(/C=C/c4cnc5ccccc5c4)cc3)cn2C)cn1C [Ic3, (E)-N,N-dimethyl-N-(2-(1-methyl-4-(1-methyl-4-(4-(2-(quinolin-3-yl)vinyl)benzamido)-1H-pyrrole-2-carboxamido)-1H-pyrrole-2-carboxamido)ethyl)butan-1-aminium]
- MIC80 [1]: < 5 µM
- MIC80 [2]: < 5 µM
- E. faecalis Selectivity Indices, Group [2, 8]: D (Group D: SI > 5)
- E. faecalis Selectivity Index (SI) ([2]; SI, IC50 (μM)/MIC80 (μM), HEK293 cytotoxicity, numeric value): 11
- MIC80 [3]: > 100 µM
- T. vaginalis Selectivity Indices, Group (T. vaginalis): D (Group D: SI > 3)
- T. vaginalis Selectivity Index (SI) (T. vaginalis): 6
- IC50 (T. vaginalis): 1 to 5 µM
- MIC99 (C. neoformans (F10025)): 5 to 25 µg/mL
- MIC99 [6]: > 50 µg/mL
- MIC99 [7]: 5 to 25 µg/mL

SMILES: CCCCC[N+](C)(C)CCNC(=O)c1cc(NC(=O)c2cc(NC(=O)c3ccc(/C=C/c4cnc5ccccc5c4)cc3)cn2C)cn1C [Ic4, (E)-N,N-dimethyl-N-(2-(1-methyl-4-(1-methyl-4-(4-(2-(quinolin-3-yl)vinyl)benzamido)-1H-pyrrole-2-carboxamido)-1H-pyrrole-2-carboxamido)ethyl)pentan-1-aminium]
- S. aureus Selectivity Indices, Group [1]: D (Group D: SI > 10)
- S. aureus Selectivity Index (SI) [1]: 11
- MIC80 [1]: < 5 µM
- MIC80 [2]: < 5 µM
- E. faecalis Selectivity Indices, Group [2, 8]: C (Group C: 2 < SI <= 5)
- MIC80 [3]: > 100 µM
- T. vaginalis Selectivity Indices, Group (T. vaginalis): D (Group D: SI > 3)
- T. vaginalis Selectivity Index (SI) (T. vaginalis): 4
- IC50 (T. vaginalis): 1 to 5 µM
- MIC99 (C. neoformans (F10025)): 5 to 25 µg/mL
- MIC99 [6]: > 50 µg/mL
- MIC99 [7]: 5 to 25 µg/mL

SMILES: CCCCCCCC[N+](C)(C)CCNC(=O)c1cc(NC(=O)c2cc(NC(=O)c3ccc(/C=C/c4cnc5ccccc5c4)cc3)cn2C)cn1C [Ic7, (E)-N,N-dimethyl-N-(2-(1-methyl-4-(1-methyl-4-(4-(2-(quinolin-3-yl)vinyl)benzamido)-1H-pyrrole-2-carboxamido)-1H-pyrrole-2-carboxamido)ethyl)octan-1-aminium]
- S. aureus Selectivity Indices, Group [1]: D (Group D: SI > 10)
- S. aureus Selectivity Index (SI) [1]: 13
- MIC80 [1]: < 5 µM
- MIC80 [2]: > 100 µM
- MIC80 [3]: > 100 µM
- IC50 (T. vaginalis): 5 to 50 µM
- MIC99 (C. neoformans (F10025)): 5 to 25 µg/mL
- MIC99 [6]: > 50 µg/mL
- MIC99 [7]: 5 to 25 µg/mL

SMILES: CCCCCCCCC[N+](C)(C)CCNC(=O)c1cc(NC(=O)c2cc(NC(=O)c3ccc(/C=C/c4cnc5ccccc5c4)cc3)cn2C)cn1C [Ic8, (E)-N,N-dimethyl-N-(2-(1-methyl-4-(1-methyl-4-(4-(2-(quinolin-3-yl)vinyl)benzamido)-1H-pyrrole-2-carboxamido)-1H-pyrrole-2-carboxamido)ethyl)nonan-1-aminium]
- S. aureus Selectivity Indices, Group [1]: C (Group C: 5 < SI <= 10)
- S. aureus Selectivity Index (SI) [1]: 6
- MIC80 [1]: < 5 µM
- MIC80 [2]: > 100 µM
- MIC80 [3]: > 100 µM
- IC50 (T. vaginalis): 5 to 50 µM
- MIC99 (C. neoformans (F10025)): 25 to 50 µg/mL
- MIC99 [6]: > 50 µg/mL
- MIC99 [7]: 5 to 25 µg/mL

SMILES: CCCCCCCCCCC[N+](C)(C)CCNC(=O)c1cc(NC(=O)c2cc(NC(=O)c3ccc(/C=C/c4cnc5ccccc5c4)cc3)cn2C)cn1C [Ic10, (E)-N,N-dimethyl-N-(2-(1-methyl-4-(1-methyl-4-(4-(2-(quinolin-3-yl)vinyl)benzamido)-1H-pyrrole-2-carboxamido)-1H-pyrrole-2-carboxamido)ethyl)undecan-1-aminium]
- MIC80 [1]: 5 to 25 µM
- MIC80 [2]: > 100 µM
- MIC80 [3]: > 100 µM
- IC50 (T. vaginalis): 5 to 50 µM
- MIC99 (C. neoformans (F10025)): > 50 µg/mL
- MIC99 [6]: > 50 µg/mL
- MIC99 [7]: 25 to 50 µg/mL

SMILES: CCCCCCCCCCCC[N+](C)(C)CCNC(=O)c1cc(NC(=O)c2cc(NC(=O)c3ccc(/C=C/c4cnc5ccccc5c4)cc3)cn2C)cn1C [Ic11, (E)-N,N-dimethyl-N-(2-(1-methyl-4-(1-methyl-4-(4-(2-(quinolin-3-yl)vinyl)benzamido)-1H-pyrrole-2-carboxamido)-1H-pyrrole-2-carboxamido)ethyl)dodecan-1-aminium]
- MIC80 [1]: 5 to 25 µM
- MIC80 [2]: 25 to 100 µM
- MIC80 [3]: > 100 µM
- IC50 (T. vaginalis): 5 to 50 µM
- MIC99 (C. neoformans (F10025)): > 50 µg/mL
- MIC99 [6]: > 50 µg/mL
- MIC99 [7]: 5 to 25 µg/mL
